Assay results reported in the CheMixHub viscosity set.

Test: xn = mol fraction of the nth substance listed

CC1CCCCC1 + CCCCCC
viscosity [mPa·s], 101 kPa
Settings	293.15 K	298.15 K	303.15 K	308.15 K
x1 = 0.0401	0.3176	0.3005	0.2736	–
x1 = 0.1041	–	–	0.3003	–
x1 = 0.1042	–	0.334	0.318	0.301
x1 = 0.2002	0.3482	0.3336	0.3072	–
x1 = 0.202	–	–	0.3216	–
x1 = 0.2026	–	0.359	0.341	0.323
x1 = 0.2772	0.3681	0.3511	0.3256	–
x1 = 0.3005	–	–	0.3476	–
x1 = 0.301	–	0.373	0.354	0.335
x1 = 0.3562	0.3915	0.3713	0.3477	–
x1 = 0.3972	–	–	0.375	–
x1 = 0.4018	–	0.401	0.378	0.359
x1 = 0.4196	0.4131	0.3895	0.3654	–
x1 = 0.5015	–	–	0.4074	–
x1 = 0.5026	–	0.433	0.41	0.387
x1 = 0.5574	–	–	0.4286	–
x1 = 0.5875	0.4812	0.4512	0.4227	–
x1 = 0.6024	–	0.473	0.446	0.42
x1 = 0.6173	–	–	0.4495	–
x1 = 0.6796	0.5261	0.49	0.46	–
x1 = 0.7021	–	0.517	0.487	0.457
x1 = 0.7645	0.5729	0.5323	0.5001	–
x1 = 0.8006	–	–	0.5303	–
x1 = 0.8016	–	0.573	0.539	0.504
x1 = 0.8397	0.6187	0.5725	0.5388	–
x1 = 0.9002	–	–	0.5837	–
x1 = 0.9011	–	0.624	0.585	0.545
x1 = 0.9198	0.6688	0.6221	0.5865	–

CNS(C)(=O)=O + CC(=O)N(C)C
303.15 K, 101.33 kPa
Settings	viscosity [mPa·s]
x1 = 0.1009	1.104
x1 = 0.2022	1.473
x1 = 0.2303	1.578
x1 = 0.4082	2.571
x1 = 0.4802	3.127
x1 = 0.6009	4.202
x1 = 0.7019	5.204
x1 = 0.7958	6.184
x1 = 0.8966	7.185

CC(C)O + CCCO
viscosity [mPa·s], 101 kPa
Settings	293.15 K	298.15 K	303.15 K	313.15 K	323.15 K
x2 = 0.1001	2.369	–	1.776	1.349	1.048
x2 = 0.172	–	2.066	–	–	–
x2 = 0.2006	2.359	–	1.777	1.36	1.066
x2 = 0.2956	2.344	–	1.773	1.365	1.077
x2 = 0.33	–	1.997	–	–	–
x2 = 0.3999	2.322	–	1.766	1.368	1.084
x2 = 0.4993	2.3	–	1.758	1.368	1.086
x2 = 0.5	–	2.02	–	–	–
x2 = 0.6	2.278	–	1.75	1.367	1.088
x2 = 0.665	–	1.985	–	–	–
x2 = 0.6973	2.258	–	1.744	1.368	1.089
x2 = 0.754	–	1.985	–	–	–
x2 = 0.7993	2.238	–	1.739	1.368	1.091
x2 = 0.826	–	1.972	–	–	–
x2 = 0.8994	2.219	–	1.734	1.369	1.096

CCCCCl + CCCCCCCCCCCC
298 K, 101.3 kPa
Settings	viscosity [mPa·s]
x2 = 0.1032	0.5072
x2 = 0.202	0.5794
x2 = 0.2999	0.6598
x2 = 0.3986	0.7447
x2 = 0.4981	0.8232
x2 = 0.6017	0.9282
x2 = 0.7015	1.034
x2 = 0.7981	1.13
x2 = 0.8948	1.22

[Li+].[O-][Cl+3]([O-])([O-])[O-] + C1COCO1
101 kPa, x1 = 0.07
Settings	viscosity [mPa·s]
303.15 K	1
308.15 K	0.93
313.15 K	0.89
318.15 K	0.85
323.15 K	0.81

OCC(F)(F)C(F)F + O
viscosity [mPa·s], 100 kPa
Settings	x1 = 0.1237	x1 = 0.2532	x1 = 0.3747	x1 = 0.5024	x1 = 0.6133	x1 = 0.7598	x1 = 0.8707
298.15 K	2.07	2.716	3.002	3.314	3.523	3.91	4.341
323.15 K	1.032	1.34	1.478	1.59	1.678	1.807	1.961

N#CCc1ccccc1 + CNC(C)=O
308.15 K, 101.33 kPa
Settings	viscosity [mPa·s]
x2 = 0.0446	1.599
x2 = 0.2775	1.791
x2 = 0.3928	1.896
x2 = 0.5001	2.049
x2 = 0.6015	2.252
x2 = 0.6941	2.456
x2 = 0.7795	2.662
x2 = 0.8542	2.87
x2 = 0.9375	3.109

CCS(=O)CC + CCC#N
viscosity [mPa·s], 101 kPa
Settings	x1 = 0.0998	x1 = 0.2002	x1 = 0.2962	x1 = 0.3999	x1 = 0.4953	x1 = 0.6017	x1 = 0.6937	x1 = 0.7999	x1 = 0.8998
298.15 K	0.53	0.63	0.73	0.89	1.05	1.26	1.45	1.74	1.98
303.15 K	0.49	0.59	0.69	0.83	0.96	1.15	1.35	1.56	1.84
308.15 K	0.46	0.55	0.64	0.78	0.89	1.06	1.25	1.41	1.68
313.15 K	0.44	0.54	0.61	0.74	0.85	0.99	1.14	1.32	1.52
318.15 K	0.42	0.5	0.59	0.69	0.78	0.92	–	1.21	1.39
323.15 K	0.36	0.43	0.51	0.59	0.67	0.79	0.91	1.02	1.17

CCCCCl + CC(C)CO
viscosity [mPa·s], 101 kPa
Settings	x1 = 0.0951	x1 = 0.2057	x1 = 0.3038	x1 = 0.4102	x1 = 0.5035	x1 = 0.6121	x1 = 0.7033	x1 = 0.8022	x1 = 0.9043
298.15 K	2.41	1.677	1.261	0.9677	0.7931	0.6506	–	0.5	0.4513
313.15 K	1.576	1.152	0.9054	0.7239	0.6137	0.5199	0.4687	0.4153	0.3832

CC1CCCCC1 + CCCCCCC
viscosity [mPa·s]
Settings	293.15 K	298.15 K	303.15 K	308.15 K	323.15 K
100 kPa, x1 = 0.125	–	–	0.389	–	0.317
100 kPa, x1 = 0.25	–	–	0.411	–	0.335
100 kPa, x1 = 0.375	–	–	0.436	–	0.354
100 kPa, x1 = 0.5	–	–	0.465	–	0.375
100 kPa, x1 = 0.625	–	–	0.498	–	0.4
100 kPa, x1 = 0.75	–	–	0.538	–	0.43
100 kPa, x1 = 0.875	–	–	0.585	–	0.466
101 kPa, x1 = 0.0405	0.4128	0.3963	0.368	–	–
101 kPa, x1 = 0.1021	–	0.411	0.391	0.371	–
101 kPa, x1 = 0.1996	0.4451	0.4235	0.4003	–	–
101 kPa, x1 = 0.2033	–	0.432	0.41	0.389	–
101 kPa, x1 = 0.281	0.4637	0.4402	0.4162	–	–
101 kPa, x1 = 0.3044	–	0.451	0.427	0.403	–
101 kPa, x1 = 0.3593	0.4826	0.4568	0.4317	–	–
101 kPa, x1 = 0.4036	–	0.473	0.449	0.422	–
101 kPa, x1 = 0.4393	0.5042	0.474	0.4476	–	–
101 kPa, x1 = 0.5029	–	0.497	0.47	0.443	–
101 kPa, x1 = 0.6003	0.5514	0.5153	0.4887	–	–
101 kPa, x1 = 0.6033	–	0.526	0.496	0.467	–
101 kPa, x1 = 0.6793	0.5802	0.5399	0.512	–	–
101 kPa, x1 = 0.7038	–	0.556	0.524	0.492	–
101 kPa, x1 = 0.76	0.6141	0.571	0.5395	–	–
101 kPa, x1 = 0.8022	–	0.591	0.557	0.522	–
101 kPa, x1 = 0.84	0.6483	0.6042	0.5687	–	–
101 kPa, x1 = 0.9006	–	0.625	0.589	0.553	–
101 kPa, x1 = 0.9074	0.6821	0.6347	0.5964	–	–

CCCNCCC + CCC(C)O
303.15 K, 101 kPa
Settings	viscosity [mPa·s]
x1 = 0.009464	2.442
x1 = 0.02067	2.411
x1 = 0.03223	2.381
x1 = 0.04172	2.358
x1 = 0.04996	2.336
x1 = 0.05928	2.313
x1 = 0.07049	2.286
x1 = 0.08687	2.251
x1 = 0.09038	2.238

CCOC(=O)c1ccccc1 + C1CCCCC1
viscosity [mPa·s], 101 kPa
Settings	x1 = 0.0779	x1 = 0.1586	x1 = 0.2454	x1 = 0.3327	x1 = 0.4305	x1 = 0.5312	x1 = 0.6374	x1 = 0.751	x1 = 0.868
303.15 K	0.82	0.832	0.88	0.937	1.025	1.123	1.248	1.387	1.552
308.15 K	0.78	0.801	0.84	0.89	0.96	1.047	1.157	1.295	1.439
313.15 K	0.708	0.727	0.772	0.819	0.885	0.967	1.069	1.198	1.33

CCCCCl + C1CCOC1
viscosity [mPa·s], 101 kPa
Settings	298.15 K	313.15 K
x2 = 0.0418	0.4311	0.3702
x2 = 0.052	0.434	–
x2 = 0.0524	0.4231	0.3656
x2 = 0.0982	0.4366	0.3758
x2 = 0.0985	0.439	–
x2 = 0.108	0.425	0.3675
x2 = 0.153	0.443	–
x2 = 0.1781	0.442	0.3808
x2 = 0.2063	0.4287	0.3706
x2 = 0.2076	0.444	0.3826
x2 = 0.29	0.449	–
x2 = 0.2991	0.4324	0.3737
x2 = 0.2996	0.4479	0.3869
x2 = 0.36	0.452	–
x2 = 0.4	0.4522	0.3911
x2 = 0.4088	0.4367	0.3772
x2 = 0.4229	0.455	–
x2 = 0.445	0.456	–
x2 = 0.4998	0.4547	0.3937
x2 = 0.507	0.4408	0.3804
x2 = 0.5395	0.457	–
x2 = 0.5516	0.4553	0.3943
x2 = 0.5945	0.458	–
x2 = 0.5979	0.4565	0.3955
x2 = 0.6074	0.4453	0.3838
x2 = 0.6605	0.459	–
x2 = 0.6991	0.458	0.3977
x2 = 0.7001	0.4495	0.387
x2 = 0.7649	0.46	–
x2 = 0.8021	0.4598	0.3997
x2 = 0.8054	0.4546	0.3907
x2 = 0.8499	0.46	0.3999
x2 = 0.8658	0.461	–
x2 = 0.891	0.4587	0.3939
x2 = 0.8993	0.4607	0.4
x2 = 0.9108	0.46	–
x2 = 0.9519	0.4598	0.4006
x2 = 0.9528	0.4613	0.3961

N#CCc1ccccc1 + ClC=C(Cl)Cl
Settings	viscosity [mPa·s]
303.15 K, 101 kPa, x1 = 0.819	1.455

CCOC(=O)c1ccccc1 + C1CCOC1
viscosity [mPa·s], 101 kPa
Settings	x1 = 0.0601	x1 = 0.1259	x1 = 0.198	x1 = 0.2773	x1 = 0.3628	x1 = 0.4611	x1 = 0.5719	x1 = 0.6953	x1 = 0.8372
303.15 K	0.488	0.545	0.617	0.706	0.804	0.937	1.083	1.257	1.474
308.15 K	0.473	0.524	0.595	0.676	0.767	0.885	1.019	1.168	1.36
313.15 K	0.436	0.49	0.553	0.626	0.706	0.809	0.928	1.063	1.229

CC(C)CC1CCCCC1 + CCCCCCCCCCCC
viscosity [mPa·s], 102 kPa
Settings	x1 = 0.1	x1 = 0.2011	x1 = 0.3007	x1 = 0.4005	x1 = 0.4977	x1 = 0.5997	x1 = 0.6989	x1 = 0.7996
293.15 K	1.46	1.42	1.39	1.35	1.32	1.29	1.25	1.22
303.15 K	1.23	1.2	1.17	1.14	1.12	1.09	1.07	1.04
313.15 K	1.05	1.02	1	0.982	0.965	0.942	0.922	0.903
323.15 K	0.902	0.889	0.874	0.856	0.842	0.824	0.809	0.793
